In general, solubility refers to the concentration that dissolves in the medium under given conditions. Lower therefore signals little dissolved substance. The term IC50 denotes the point on the concentration scale where inhibition reaches its midpoint.

The text below walks through data of article PMC7997574, “Lead Optimization of Benzoxazolone Carboxamides as Orally Bioavailable and CNS Penetrant Acid Ceramidase Inhibitors” (Journal of Medicinal Chemistry, 2020).

Molecules are shown by their SMILES. Structures can show the parent of a compound that is named as a salt. Where two headings read alike, the source gives them in different places. Where only a bound is given, the exact number is not on record here.

A short description of data set [1]: Aqueous kinetic solubility assay. The data set is classed as physicochemical. The conditions noted are these: PBS, pH 7.4. The essentials:
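Kinetic solubility from 10 mM MeCN stock spiked into PBS pH 7.4 at 250 μM target, shaken 1 h at 25 °C, then centrifuged. Dissolved compound in supernatant quantified by UPLC/MS with UV at 215 nm; mean of ≥2 experiments.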

Data set [2] can be described thus: Chemical stability assay in PBS pH 7.4. Particulars: phosphate-buffered saline, read-out: chemical stability t1/2. It counts as physicochemical. As to the method:
Chemical stability of selected compounds was evaluated under physiological pH conditions (0.01 M phosphate-buffered saline, pH 7.4) for up to 8 h. The buffer was added with 10% MeCN. Stock solutions of each compound (10 mM) were freshly prepared in MeCN. Each compound was incubated at a final concentration of 1 μM in preheated buffer (37 °C). The sample solutions were divided into aliquots in glass vials (preheated at 37 °C) for each time point. The samples were maintained at 37 °C in the UPLC/MS autosampler during the study (no shaking). A reference solution of each compound (final concentration: 1 μM) in preheated MeCN was prepared from the stock solutions and maintained at 37 °C in the UPLC/MS autosampler during the study. For each time point, the samples were analyzed directly by LC/MS without any further sample preparation. The samples were analyzed by integrating the corresponding MRM peak areas. The relative compound concentration was calculated by dividing the peak area at each time point by the peak area at t = 0 min. The reference solution was analyzed at the beginning (t = 0 min) and at the end of the study (t = 8 h). The apparent half-life (t1/2) of the disappearance of the compound was calculated using the best fitting equation by GraphPad Prism (GraphPad Software, Inc., USA). The analyses were performed on a Waters ACQUITY UPLC/MS TQD system consisting of a triple quadrupole detector (TQD) MS equipped with an ESI interface and a photodiode array detector. The analyses were run on an ACQUITY UPLC BEH C18 1.7 μm 2.1 × 50 mm column with a VanGuard BEH C18 1.7 μm preolumn at 40 °C. For each compound, the appropriate mobile phase was chosen. ESI was applied in positive mode. Values are the mean of at least two independent experiments performed in two technical replicates.

The nature of data set [3]: In vitro plasma stability study. It counts as in vitro ADME. The conditions noted are these: mouse plasma; read-out: mouse plasma stability t1/2. The method, boiled down:
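Compound at 2 μM final incubated in mouse plasma at 37 °C for up to 120 min, sampled at 0–120 min and quenched in cold MeCN with internal standard. Remaining compound quantified by LC/MS/MS; t1/2 fitted from response vs time; mean of ≥2 experiments.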

The target in another data set is T1, AC (Homo sapiens, UniProt Q13510).
T1 sequence (Q13510 22-395): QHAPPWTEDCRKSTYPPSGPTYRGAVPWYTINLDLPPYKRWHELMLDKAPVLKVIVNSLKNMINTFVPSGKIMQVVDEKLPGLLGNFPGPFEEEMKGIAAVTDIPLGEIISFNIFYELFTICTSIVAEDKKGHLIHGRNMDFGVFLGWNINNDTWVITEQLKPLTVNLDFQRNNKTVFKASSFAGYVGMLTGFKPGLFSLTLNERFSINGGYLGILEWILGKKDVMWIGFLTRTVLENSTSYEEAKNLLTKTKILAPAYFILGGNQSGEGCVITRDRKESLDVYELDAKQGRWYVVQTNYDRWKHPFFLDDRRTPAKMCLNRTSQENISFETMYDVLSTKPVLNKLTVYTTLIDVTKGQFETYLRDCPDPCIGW
The data set can be described thus: Fluorogenic hAC assay on hAC-enriched lysate of HEK293 cells. Also on record: expressed in transfected cells. The data set is classed as biochemical. The method, boiled down:
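Lysosome-enriched lysate (2 μg protein) from HEK293 cells stably expressing hAC, in 25 mM NaOAc pH 4.5. Pre-incubated 10 min with compound, then incubated 3 h at 37 °C with fluorogenic substrate Rbm14–12 (5 μM final, ~KM). Fluorescence (355/460 nm) read after NaIO4 development; IC50 by nonlinear regression, mean of ≥3 experiments.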

[4] abbreviates: supplementary csv, read-out: hAC, IC50.

Consider `O=C(NCCCCc1ccccc1)n1c2c(oc1=O)CCNC2` [12b, 2-Oxo-N-(4-phenylbutyl)-4,5,6,7-tetrahydrooxazolo[4,5-c]pyridine-3-carboxamide Hydrochloride], for which, in data set [1], the solubility at 1 h was found to be 82 µM. Besides, in data set [2] (PBS at pH 7.4), the half-life at 1 μM is over 8 h. The half-life at 2 μM in data set [3] was over 2 h. The IC50 at AC (setting [4]) is 247 ± 156 nM.

Turning to `O=C(NCCCCc1ccccc1)n1c2c(oc1=O)CNCC2` [17b, 2-Oxo-N-(4-phenylbutyl)-4,5,6,7-tetrahydrooxazolo[5,4-c]pyridine-1-carboxamide Hydrochloride], the solubility at 1 h in data set [1] was found to be 230 µM. For the same compound, in data set [2] (PBS at pH 7.4), the half-life at 1 μM is over 8 h. The half-life at 2 μM in data set [3] is over 2 h. On AC (setting [4]), the IC50 was 341 ± 12 nM.

For `O=C(NCCCCc1ccccc1)n1c(=O)oc2cnccc21` [8b, 2-Oxo-N-(4-phenylbutyl)oxazolo[5,4-c]pyridine-1-carboxamide], the half-life at 1 μM in data set [2] (PBS, pH 7.4) is under 0.25 h. Besides, at AC (read-out: hAC IC50), the IC50 is 3 nM.
